“And” between values parts separate entries of the source, which are not always exact repeats. Equal values may be shown once. Inconclusive results and toxic doses are left out. The calls were made as follows: active = survival T/C of 150% or more; inactive = T/C below 125% in these data. Where a SMILES comes first, the peptide text is derived from it.
Test system: B6C3F1 mice, B16 melanoma ip, median survival T/C
Test: NCI In Vivo Anticancer Drug Screen. Data for tumor model B16 Melanoma (intraperitoneal) in B6C3F1 mice
Conditions: endpoint: median survival time, higher = longer survival
In short: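 Antitumor effect was judged in mice with transplanted tumors by dividing the treated group's survival measure by that of vehicle controls.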

[1] = dose: 12.5 mg/kg/injection, schedule: Q01DX009 (ip), vehicle: saline with Tween-80
[2] = dose: 25.0 mg/kg/injection, schedule: Q01DX009 (ip), vehicle: saline with Tween-80
[3] = dose: 50.0 mg/kg/injection, schedule: Q01DX009 (ip), vehicle: saline with Tween-80
[4] = dose: 100.0 mg/kg/injection, schedule: Q01DX009 (ip), vehicle: saline with Tween-80
[5] = dose: 200.0 mg/kg/injection, schedule: Q01DX009 (ip), vehicle: saline with Tween-80

Measured: T/C

O=C1NC(O)CCN1C1OC(CO)C(O)C1O (stereo unspecified)
inactive: dose: 25.0 mg/kg/injection, schedule: Q01DX008 (ip), vehicle: saline 104 % of control | dose: 50.0 mg/kg/injection, schedule: Q01DX008 (ip), vehicle: saline 99 % of control | dose: 100.0 mg/kg/injection, schedule: Q01DX008 (ip), vehicle: saline 104 % of control | dose: 200.0 mg/kg/injection, schedule: Q01DX008 (ip), vehicle: saline 108 % of control | dose: 400.0 mg/kg/injection, schedule: Q01DX008 (ip), vehicle: saline 108 % of control | dose: 800.0 mg/kg/injection, schedule: Q01DX008 (ip), vehicle: saline 96 % of control

Brc1ccc(C[N+]23CN4CN(CN(C4)C2)C3)cc1
inactive: [1] 100 % of control | [2] 98 % of control | [3] 101 % of control | [4] 108 % of control | [5] 112 % of control

Nc1nc(-c2ccc([N+](=O)[O-])cc2)c(Br)c(=O)[nH]1
inactive: [2] 98 % of control | [3] 107 % of control | [4] 107 % of control | [5] 95 % of control

CCOC(=O)C1(c2ccccc2)C(=O)Oc2ccccc21 (stereo unspecified)
inactive: [1] 99 % of control and 100 % of control | [2] 101 % of control and 102 % of control | [3] 95 % of control and 105 % of control | [4] 93 % of control and 95 % of control | [5] 93 % of control and 100 % of control | dose: 400.0 mg/kg/injection, schedule: Q01DX009 (ip), vehicle: saline with Tween-80 91 % of control

O=C(O)CCC(NC(=O)OCc1ccccc1)C(=O)NCC(=O)O (stereo unspecified) (HELM PEPTIDE1{[O=C(OCc1ccccc1)[*:2]].[O=C(O)CCC(N[*:1])C(=O)[*:2]].G}$$$$V2.0)
inactive: dose: 25.0 mg/kg/injection, schedule: Q01DX009 (ip), vehicle: saline 102 % of control | dose: 50.0 mg/kg/injection, schedule: Q01DX009 (ip), vehicle: saline 97 % of control | dose: 100.0 mg/kg/injection, schedule: Q01DX009 (ip), vehicle: saline 107 % of control | dose: 200.0 mg/kg/injection, schedule: Q01DX009 (ip), vehicle: saline 113 % of control | dose: 400.0 mg/kg/injection, schedule: Q01DX009 (ip), vehicle: saline 112 % of control

CC(O)CCC(=O)c1ccoc1 (stereo unspecified)
inactive: dose: 0.62 mg/kg/injection, schedule: Q03HX027 (ip), vehicle: saline 97 % of control | dose: 1.25 mg/kg/injection, schedule: Q03HX027 (ip), vehicle: saline 113 % of control | dose: 2.5 mg/kg/injection, schedule: Q03HX027 (ip), vehicle: saline 105 % of control | dose: 5.0 mg/kg/injection, schedule: Q01DX009 (ip), vehicle: saline 105 % of control | dose: 5.0 mg/kg/injection, schedule: Q03HX027 (ip), vehicle: saline 114 % of control | dose: 10.0 mg/kg/injection, schedule: Q01DX009 (ip), vehicle: saline 93 % of control | dose: 10.0 mg/kg/injection, schedule: Q03HX027 (ip), vehicle: saline 105 % of control | dose: 20.0 mg/kg/injection, schedule: Q01DX009 (ip), vehicle: saline 98 % of control

O=c1[nH]cnc2c1cnn2CN1CCOCC1
inactive: dose: 25.0 mg/kg/injection, schedule: Q01DX009 (ip), vehicle: Klucel (hydroxypropylcellulose) (HPC) 98 % of control and 99 % of control | dose: 50.0 mg/kg/injection, schedule: Q01DX009 (ip), vehicle: Klucel (hydroxypropylcellulose) (HPC) 100 % of control and 102 % of control | dose: 100.0 mg/kg/injection, schedule: Q01DX009 (ip), vehicle: Klucel (hydroxypropylcellulose) (HPC) 123 % of control and 100 % of control | dose: 200.0 mg/kg/injection, schedule: Q01DX009 (ip), vehicle: Klucel (hydroxypropylcellulose) (HPC) 99 % of control

COc1cccc2c1C(=O)c1c(O)c3c(c(O)c1C2=O)CC(O)(/C(C)=N/NC(=O)CCCCC(=O)N/N=C(\C)C1(O)Cc2c(O)c4c(c(O)c2C(OC2CC(N)C(O)C(C)O2)C1)C(=O)c1c(OC)cccc1C4=O)CC3OC1CC(N)C(O)C(C)O1 (stereo unspecified)
active: dose: 1.56 mg/kg/injection, schedule: Q01DX009 (ip), vehicle: water 191 % of control | dose: 3.12 mg/kg/injection, schedule: Q01DX009 (ip), vehicle: water 216 % of control | dose: 6.25 mg/kg/injection, schedule: Q01DX009 (ip), vehicle: water 335 % of control
